How the values were obtained:
[1] = tested on: HFF-1; assay: MTT cell viability assay, normal fibroblasts HFF-1; format: cell-based, human; settings: 72 h; for IC50: HFF-1 normal cells, MTT
Description: All compounds were dissolved in DMSO (stock solutions) and then diluted in culture media to the final working concentrations. […] The effects of compounds 4a-p and 2b on cancer cell viability were tested by an MTT assay (Sigma-Aldrich, St. Louis, MO, USA), as described by Florio et al. [17]. In the initial screening all compounds were tested at a one-point screening concentration of 75 μM for 72 h (five replica wells per each condition).
IC50 values were extrapolated from concentration–response curves and calculated using the CompuSyn software [45]. […] SI values were calculated as previously described [46]. Comparisons of mean values were performed using an unpaired Student’s t-test. For multiple comparisons, a one-way ANOVA followed by Dunnett’s test were employed. A p-value < 0.05 was estimated as statistically significant.

[2] = tested on: PTJ64i; assay: MTT cell viability assay, PTJ64i; format: cell-based; settings: for Selectivity Index (SI): IC50 in normal (HFF-1) fibroblast cells/IC50 in PTJ64i; for IC50: PTJ64i paraganglioma, MTT, 72 h
Description: (§1) Compounds 4a–p were submitted to a preliminary MTT assay at a one-point screening concentration of 75 μM for 72 h, including 2b as a reference compound (Figure 3). […] The presence of the electron-donating methoxy group decreased the activity of 2b, in both the para and meta positions. […] Specifically, these compounds, namely 4d, 4e, 4f, 4h, 4i, 4j, 4k, 4l, and 4m, were tested at concentrations of 3, 6, 12 and 24 µM for 72 h. In addition, the nine compounds, together with 2b, were tested against human fibroblasts HFF-1, in order to evaluate their selectivity against tumor cells, as compared to normal cells. Effects on cancer or normal cell viability were extrapolated from concentration–response curves and are expressed as IC50 values in Table 2.
(§2) Pancreatic cancer (AsPC-1, BxPC-3, and Capan-2), paraganglioma (PTJ86i and PTJ64i) and normal fibroblast (HFF-1) cell lines were cultured as previously described. All compounds were dissolved in DMSO (stock solutions) and then diluted in culture media to the final working concentrations. In this way, the solutions were completely clear and devoid of any undissolved material by microscopic inspection. […] The effects of compounds 4a-p and 2b on cancer cell viability were tested by an MTT assay (Sigma-Aldrich, St. Louis, MO, USA), as described by Florio et al.. In the initial screening all compounds were tested at a one-point screening concentration of 75 μM for 72 h (five replica wells per each condition). […] For combined treatments, the experimental design was made according to the Chou–Talalay method for drug combination studies, as previously described.
(§3) IC50 values were extrapolated from concentration–response curves and calculated using the CompuSyn software. […] Based on this analysis, a CI < 1 indicates synergism, a CI = 1 indicates additive effects and a CI > 1 indicates antagonism. SI values were calculated as previously described. Comparisons of mean values were performed using an unpaired Student’s t-test. For multiple comparisons, a one-way ANOVA followed by Dunnett’s test were employed. A p-value < 0.05 was estimated as statistically significant.

[3] = tested on: AsPC-1; assay: MTT cell viability assay, AsPC-1; format: cell-based; settings: for IC50: AsPC-1 pancreatic cancer, MTT; for IC50 / Inhibition Rate of Cell Viability: 72 h; for Selectivity Index (SI): IC50 in normal (HFF-1) fibroblast cells/IC50 in AsPC-1
Description: as §1, §2, §3

[4] = tested on: Capan-2; assay: MTT cell viability assay, Capan-2; format: cell-based; settings: for IC50: Capan-2 pancreatic cancer, MTT; for IC50 / Inhibition Rate of Cell Viability: 72 h; for Selectivity Index (SI): IC50 in normal (HFF-1) fibroblast cells/IC50 in Capan-2
Description: as §1, §2, §3

[5] = tested on: pancreatic (AsPC-1, BxPC-3, and Capan-2) and paraganglioma (PTJ64i and PTJ86i) cancer cell lines; assay: One-point MTT screening at 75 µM in cancer cell lines; format: cell-based; settings: one-point screening concentration of 75 μM for 72 h, five cancer cell lines
Description: as §1, §2
Figure 3 Screening of the effects of novel derivatives (4a–p) on the viability of pancreatic (AsPC-1, BxPC-3, and Capan-2) and paraganglioma (PTJ64i and PTJ86i) cancer cell lines. The lead compound 2b was included as a reference and the histograms show the relative decrease of cancer cell viability observed after treatments, as compared to 2b. Cell viability was assessed by an MTT assay using compounds at 75 µM for 72 h. Data shown are the means ± SD of duplicate experiments with quintuplicate determinations and are calculated as ratios relative to the reference compound 2b (dashed line).

[6] = tested on: BxPC-3; assay: MTT cell viability assay, BxPC-3; format: cell-based; settings: for IC50: BxPC-3 pancreatic cancer, MTT; for IC50 / Inhibition Rate of Cell Viability: 72 h; for Selectivity Index (SI): IC50 in normal (HFF-1) fibroblast cells/IC50 in BxPC-3
Description: as §1, §2, §3

[7] = tested on: PTJ86i; assay: MTT cell viability assay, PTJ86i; format: cell-based; settings: for Selectivity Index (SI): IC50 in normal (HFF-1) fibroblast cells/IC50 in PTJ86i; for IC50: PTJ86i paraganglioma, MTT, 72 h
Description: as §1, §2, §3

Compound | IC50 ([1]; Homo sapiens) [µM] | Selectivity Index (SI) [2] | IC50 [2] [µM] | melting point | IC50 ([3]; Homo sapiens, ASPC1) [µM] | Selectivity Index (SI) [3] | IC50 ([4]; Homo sapiens) [µM] | Selectivity Index (SI) [4] | effect on cancer cell viability, potency compared with 2b [5] | IC50 ([6]; Homo sapiens) [µM] | Selectivity Index (SI) [6] | Selectivity Index (SI) [7] | IC50 [7] [µM] | further results
O=C(Nc1ccc([N+](=O)[O-])cc1)C(Sc1nc2cc(Cl)ccc2s1)c1ccccc1 (stereo not shown) [4e, 2-[(5-Chlorobenzo[d]thiazol-2-yl)thio]-N-(4-nitrophenyl)-2-phenylacetamide] | 16.7 | 1.70 | 9.81 | 191 to 193 °C | 12.8 | 1.31 | 14.1 | 1.18 | greater antiproliferative activity than 2b | 10.7 | 1.56 | 0.88 | 18.9 | –
CC(=O)Nc1ccc(NC(=O)C(Sc2nc3cc(Cl)ccc3s2)c2ccccc2)cc1 (stereo not shown) [4f, N-(4-Acetamidophenyl)-2-[(5-chlorobenzo[d]thiazol-2-yl)thio]-2-phenylacetamide] | 6.54 | 0.53 | 12.3 | 243 °C (dec.) | 10 | 0.65 | 20.1 | 0.33 | greater antiproliferative activity than 2b | 18.9 | 0.35 | 0.51 | 12.8 | –
O=C(Nc1cccc(Cl)c1)C(Sc1nc2cc(Cl)ccc2s1)c1ccccc1 (stereo not shown) [4h, 2-[(5-Chlorobenzo[d]thiazol-2-yl)thio]-N-(3-chlorophenyl)-2-phenylacetamide] | 11.6 | – | 7.27 | – | 12.2 | – | 17.7 | – | greater antiproliferative activity than 2b | 12 | – | – | 16.6 | –
O=C(Nc1cc([N+](=O)[O-])ccc1Br)C(Sc1nc2cc(Cl)ccc2s1)c1ccccc1 (stereo not shown) [4n, N-(2-Bromo-5-nitrophenyl)-2-[(5-chlorobenzo[d]thiazol-2-yl)thio]-2-phenyl Acetamide] | – | – | – | – | – | – | – | – | exception | – | – | – | – | –
CC(=O)Nc1cccc(NC(=O)C(Sc2nc3cc(Cl)ccc3s2)c2ccccc2)c1 (stereo not shown) [4l, N-(3-Acetamidophenyl)-2-[(5-chlorobenzo[d]thiazol-2-yl)thio]-2-phenylacetamide] | 67.1 | 6.62 | 10.1 | – | 14.8 | 4.54 | 33.8 | 1.99 | greater antiproliferative activity than 2b | 13.7 | 4.91 | 3.37 | 19.9 | Inhibition Rate of Cell Viability ([1]; HFF-1, 4l 0.5 µM): 0.00%; Inhibition Rate of Cell Viability ([1]; HFF-1, 4l 5 µM): 1.00%; Inhibition Rate of Cell Viability ([1]; HFF-1, 4l 50 µM): 17.69%; Inhibition Rate of Cell Viability ([3]; AsPC-1, 4l 0.5 µM): 13.40%; Inhibition Rate of Cell Viability ([3]; AsPC-1, 4l 5 µM): 18.87%; Inhibition Rate of Cell Viability ([3]; AsPC-1, 4l 50 µM): 42.97%; Inhibition Rate of Cell Viability ([4]; Capan-2, 4l 0.5 µM): 9.34%; Inhibition Rate of Cell Viability ([4]; Capan-2, 4l 5 µM): 30.25%; Inhibition Rate of Cell Viability ([4]; Capan-2, 4l 50 µM): 43.30%; Inhibition Rate of Cell Viability ([6]; BxPC-3, 4l 0.5 µM): 6.00%; Inhibition Rate of Cell Viability ([6]; BxPC-3, 4l 5 µM): 9.54%; Inhibition Rate of Cell Viability ([6]; BxPC-3, 4l 50 µM): 70.50%
COc1cccc(NC(=O)C(Sc2nc3cc(Cl)ccc3s2)c2ccccc2)c1 (stereo not shown) [4g, 2-[(5-Chlorobenzo[d]thiazol-2-yl)thio]-N-(3-methoxyphenyl)-2-phenylacetamide] | – | – | – | 160 to 162 °C | – | – | – | – | exception | – | – | – | – | –
O=C(Nc1ccc(C(F)(F)F)cc1)C(Sc1nc2cc(Cl)ccc2s1)c1ccccc1 (stereo not shown) [4d, 2-[(5-Chlorobenzo[d]thiazol-2-yl)thio]-2-phenyl-N-[4-(trifluoromethyl)phenyl] Acetamide] | – | 1.36 | 6.79 | – | – | 1.20 | – | 1.03 | greater antiproliferative activity than 2b | – | 2.31 | 0.74 | 12.4 | IC50 [1]: 9.23 µM; IC50 [3]: 7.66 µM; IC50 [4]: 8.97 µM; IC50 [6]: 3.99 µM
O=C(Nc1ccc(C(F)(F)F)cc1Br)C(Sc1nc2cc(Cl)ccc2s1)c1ccccc1 (stereo not shown) [4o, N-[2-Bromo-4-(trifluoromethyl)phenyl]-2-[(5-chlorobenzo[d]thiazol-2-yl)thio]-2-phenylacetamide] | – | – | – | 179 to 180 °C | – | – | – | – | exception | – | – | – | – | –
O=C(Nc1ccc(Cl)cc1)C(Sc1nc2cc(Cl)ccc2s1)c1ccccc1 (stereo not shown) [4b, 2-[(5-Chlorobenzo[d]thiazol-2-yl)thio]-N-(4-chlorophenyl)-2-phenylacetamide] | – | – | – | 178 to 180 °C | – | – | – | – | – | – | – | – | – | –
Nc1ccn([C@@H]2O[C@H](CO)[C@@H](O)C2(F)F)c(=O)n1 [GEM, gemcitabine, reference compound] | – | – | – | – | – | – | – | – | – | – | – | – | – | Inhibition Rate of Cell Viability ([3]; AsPC-1, GEM 0.1 µM): 54.21%; Inhibition Rate of Cell Viability ([3]; AsPC-1, GEM 1 µM): 63.25%; Inhibition Rate of Cell Viability ([3]; AsPC-1, GEM 10 µM): 64.63%; Inhibition Rate of Cell Viability ([4]; Capan-2, GEM 0.1 µM): 26.87%; Inhibition Rate of Cell Viability ([4]; Capan-2, GEM 1 µM): 27.22%; Inhibition Rate of Cell Viability ([4]; Capan-2, GEM 10 µM): 38.65%; Inhibition Rate of Cell Viability ([6]; BxPC-3, GEM 0.1 µM): 65.02%; Inhibition Rate of Cell Viability ([6]; BxPC-3, GEM 1 µM): 64.65%; Inhibition Rate of Cell Viability ([6]; BxPC-3, GEM 10 µM): 62.50%
O=C(Nc1cc(C(F)(F)F)ccc1Br)C(Sc1nc2cc(Cl)ccc2s1)c1ccccc1 (stereo not shown) [4p, N-[2-Bromo-5-(trifluoromethyl)phenyl]-2-[(5-chlorobenzo[d]thiazol-2-yl)thio]-2-phenylacetamide] | – | – | – | 157 to 159 °C | – | – | – | – | exception | – | – | – | – | –
O=C(Nc1ccc(Cl)c(Cl)c1)C(Sc1nc2cc(Cl)ccc2s1)c1ccccc1 (stereo not shown) [4m, 2-[(5-Chlorobenzo[d]thiazol-2-yl)thio]-N-(3,4-dichlorophenyl)-2-phenyl Acetamide] | – | 1.32 | 7.84 | – | – | 1.22 | – | 0.77 | greater antiproliferative activity than 2b | – | 1.05 | 0.52 | 19.9 | IC50 [1]: 10.3 µM; IC50 [3]: 8.49 µM; IC50 [4]: 13.3 µM; IC50 [6]: 9.81 µM
O=C(Nc1cccc(C(F)(F)F)c1)C(Sc1nc2cc(Cl)ccc2s1)c1ccccc1 (stereo not shown) [4j, 2-[(5-Chlorobenzo[d]thiazol-2-yl)thio]-2-phenyl-N-[3-(trifluoromethyl)phenyl]acetamide] | 18.1 | – | 11.2 | – | 9.53 | – | 24.2 | – | greater antiproliferative activity than 2b | 14 | – | – | 17.5 | –
COc1ccc(NC(=O)C(Sc2nc3cc(Cl)ccc3s2)c2ccccc2)cc1 (stereo not shown) [4a, 2-[(5-Chlorobenzo[d]thiazol-2-yl)thio]-N-(4-methoxyphenyl)-2-phenylacetamide] | – | – | – | 190 °C (dec.) | – | – | – | – | – | – | – | – | – | –
